Assay results: PubChem BioAssay (NCI)
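Interpolation was linear, between the two tested concentrations surrounding the appropriate level; five concentrations were tested over 48 hours in 96-well plates. At the TGI there is no net growth.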

Key:
Assay in all cases: NCI tumour cell line growth inhibition, 48 h
[1] = system: BT-549 breast
[2] = system: MDA-MB-231 breast
[3] = system: SNB-19 CNS
[4] = system: M14 melanoma
[5] = system: UACC-257 melanoma
[6] = system: COLO 205 colon
[7] = system: NCI-H522 lung
[8] = system: SF-295 CNS
[9] = system: SK-MEL-5 melanoma
[10] = system: HOP-92 NSCLC
[11] = system: T-47D breast

SMILES | TGI [1] [µM] | TGI [2] [µM] | TGI [3] [µM] | TGI [4] [µM] | TGI [5] [µM] | TGI [6] [µM] | TGI [7] [µM] | TGI [8] [µM] | TGI [9] [µM] | TGI [10] [µM] | TGI [11] [µM]
CCOC(=O)Nn1c(C)nnc1-c1ccccc1 | > 100 | > 100 | > 100 | > 100 | > 100 | > 100 | > 100 | > 100 | > 100 | > 100 | > 100
COc1ccc(/C=C2\CCC(C)C3=C2NC(=S)NC3c2ccc(OC)c(OC)c2)cc1OC (stereo not given) | 26.2 | > 31.6 | > 31.6 | > 31.6 | > 31.6 | 24.7 | > 100 | > 31.6 | 28.8 | > 100 | > 27.4
Clc1ccc(/C=C/c2nc3ccccc3s2)cc1Cl | > 100 | > 100 | > 100 | > 100 | > 100 | > 100 | > 100 | > 100 | > 100 | 72.3 | 9.77
Oc1cc2c3c(c1)c1cc4c(cc1c[n+]3CC2)OCO4 | 8.1 | 29.9 | 10.2 | > 100 | > 57.4 | > 40.6 | 4.38 | > 100 | > 100 | > 75.6 | 22.5
O=C1/C(=C/c2ccc(O)cc2)CC/C1=C\c1ccc(O)cc1 | > 100 | > 100 | > 100 | > 100 | > 100 | > 100 | > 100 | > 100 | > 100 | > 100 | > 100
CC[C@@]1(O)C(=O)OCc2c1cc1n(c2=O)Cc2c-1nc1ccccc1c2/C=N\NC(=O)CN | > 95.4 | > 100 | – | – | > 60.8 | > 100 | 35.5 | 6.13 | 1.88 | 21.8 | > 20.3
CC(C)CC(=O)OC[n+]1ccc(-c2c(COC(=O)NC(C)C)c(COC(=O)NC(C)C)c3n2CCC3)cc1 | > 100 | > 100 | > 100 | > 100 | > 100 | > 100 | > 100 | > 100 | > 100 | > 100 | > 100
COc1ccc(C(OCC2OC(n3cc(C)c(=O)[nH]c3=O)CC2n2cc(Cn3cc(I)c(=O)[nH]c3=O)nn2)(c2ccccc2)c2ccccc2)cc1 (stereo not given) | > 100 | > 100 | > 100 | > 100 | > 100 | > 100 | > 100 | > 100 | > 100 | > 100 | > 100
Cc1ccccc1-n1c(=O)c2ncn(CCCl)c2n(-c2ccccc2C)c1=S | > 100 | > 100 | – | > 100 | > 100 | > 100 | > 100 | > 100 | > 100 | > 100 | > 100
COc1c(C)c(C/C=C(\C)CCCCO[Si](c2ccccc2)(c2ccccc2)C(C)(C)C)c(OC)c(OC)c1OC | > 46.4 | > 100 | > 46.4 | > 46.4 | > 46.4 | 39.9 | > 100 | > 46.4 | 38.6 | > 31.6 | > 100
C[C@@]12C[C@@H](c3ccccc3O1)N1CCCCSC1=N2 | > 100 | > 100 | > 100 | > 100 | > 100 | > 100 | > 100 | > 100 | > 100 | > 100 | > 100
O=C(O)CN(CC(=O)O)C1CCCCC1N(CC(=O)O)CC(=O)NCCN=C=S (stereo not given) | > 100 | > 100 | > 100 | > 100 | > 100 | – | > 100 | > 100 | > 100 | > 100 | > 100
O=S1(=O)NC(=NCc2c[nH]c3ccccc23)N(c2ccccc2)c2ccncc21 | > 100 | > 100 | > 100 | > 100 | > 100 | > 100 | 92.7 | > 100 | > 100 | > 100 | > 100
C=C1c2nc3ccccc3n2C=C(c2ccccc2)N1c1ccc([N+](=O)[O-])cc1 | 46.4 | 14.2 | 24.4 | > 60.4 | 63.4 | 48.4 | 24.4 | 18.5 | 40.8 | 21.9 | > 53.5
COc1cc2c(cc1OC)C(c1ccccc1CCCCl)=NCC2 | > 100 | > 100 | > 100 | > 100 | > 100 | > 100 | > 100 | > 100 | 47.2 | > 100 | > 100
Oc1cccc2c(Cl)ccnc12 | > 100 | 97.5 | > 100 | 13.4 | 12.1 | 32.6 | 2.44 | > 100 | 14.8 | 21.5 | 48.2
CC1=C(C)[C@@]2(C)O[C@@]2(C)O[C@@]2(C)O[C@@]12C | > 100 | > 100 | > 100 | > 100 | > 100 | > 100 | > 100 | > 100 | > 100 | > 100 | > 100
COc1cc(/C=C/C(=N\NS(=O)(=O)c2ccc(C)cc2)c2sc(NNC(C)=O)nc2C)ccc1O | > 100 | > 100 | > 100 | > 100 | > 100 | > 100 | > 100 | > 100 | > 100 | > 100 | > 100
CC(C)/C(Cl)=N\OC(=O)Nc1ccc(S(N)(=O)=O)cc1 | 21.3 | 25.9 | > 78.7 | 22.1 | 32.4 | 3.92 | 2.55 | 29.3 | 29.4 | 10.1 | 52
